Measurements reported in US11767320B2, “Bicyclic dione compounds as inhibitors of KRAS” (INCYTE CORPORATION, priority 2020, dated 2023).

What was measured:
KRAS G12C = KRAS G12C (Homo sapiens, UniProt P01116, G12C); test: GDP-GTP exchange assay (fluorescence based guanine nucleotide exchange, bodipy-GDP for GppNHp, SOS1); format: biochemical; conditions: bodipy-loaded KRAS G12C, 2 hours pre-incubation with inhibitor, read-out: G12C_exchange (KRAS_G12C exchange assay IC50)
Method: The inhibitor potency of the exemplified compounds was determined in a fluorescence based guanine nucleotide exchange assay, which measures the exchange of bodipy-GDP (fluorescently labeled GDP) for GppNHp (Non-hydrolyzable GTP analog) to generate the active state of KRAS in the presence of SOS1 (guanine nucleotide exchange factor). Inhibitors were serially diluted in DMSO and a volume of 0.1 μL was transferred to the wells of a black low volume 384-well plate. 5 μL/well volume of bodipy-loaded KRAS G12C diluted to 5 nM in assay buffer (25 mM Hepes pH 7.5, 50 mM NaCl, 10 mM MgCl2 and 0.01% Brij-35) was added to the plate and pre-incubated with inhibitor for 2 hours at ambient temperature. Appropriate controls (enzyme with no inhibitor or with a G12C inhibitor (AMG-510)) were included on the plate. The exchange was initiated by the addition of a 5 μL/well volume containing 1 mM GppNHp and 300 nM SOS1 in assay buffer. The 10 μL/well reaction concentration of the bodipy-loaded KRAS G12C, GppNHp, and SOS1 were 5-25 nM, 500 uM, and 150 nM, respectively. The reaction plates were incubated at ambient temperature for 2 hours, a time estimated for complete GDP-GTP exchange in the absence of inhibitor. For the KRAS G12D and G12V mutants, similar guanine nucleotide exchange assays were used with 2.5 nM as final concentration for the bodipy loaded KRAS proteins and with 4 hours and 3 hours incubation after adding GppNHp-SOS1 mixture for G12D and G12V, respectively. A cyclic peptide described to selectively bind G12D mutant (Sakamoto et al., BBRC 484.3 (2017), 605-611) or internal compounds with confirmed binding were used as positive controls in the assay plates. Fluorescence intensities were measured on a PheraStar plate reader instrument (BMG Labtech) with excitation at 485 nm and emission at 520 nm.
Either GraphPad prism or XLfit was used to analyze the data. The IC50 values were derived by fitting the data to a four parameter logistic equation producing a sigmoidal dose-response curve with a variable Hill coefficient. Prism equation: Y=Bottom+(Top−Bottom)/(1+10^((Log IC50−X)*Hill slope)); XLfit equation: Y=(A+((B−A)/(1+((X/C)^D)))) where X is the logarithm of inhibitor concentration and Y is the response.

[1] = system: MIA PaCa-2 (KRAS G12C) cells; test: Cellular pERK HTRF assay; format: cell-based; conditions: Homo sapiens; MIA PaCa-2 cells, 4 hours, phospho-ERK 1/2 HTRF; read-out: G12C_pERK (KRAS_G12C pERK assay IC50)
Method: MIA PaCa-2 (KRAS G12C; ATCC® CRL-1420), A427 (KRAS G12D; ATCC® HTB53), HPAF-II (KRAS G12D; ATCC® CRL-1997) and NCI-H838 (KRAS WT; ATCC® CRL-5844) cells are purchased from ATCC and maintained in RPMI 1640 media supplemented with 10% FBS (Gibco/Life Technologies). The cells are plated at 5000 cells per well (8 uL) into Greiner 384-well low volume, flat-bottom, tissue culture treated white plates and incubated overnight at 37° C. 5% CO2. The next morning, test compound stock solutions are diluted in media at 3× the final concentration, and 4 uL are added to the cells. The plate is mixed by gentle rotation for 30 seconds (250 rpm) at room temperature. The cells are incubated with the KRAS G12C and G12D compounds for 4 hours or 2 hours respectively at 37° C., 5% CO2.
4 uL of 4× lysis buffer with blocking reagent (1:25) (Cisbio) are added to each well and plates are rotated gently (300 rpm) for 30 minutes at room temperature. 4 uL per well of Cisbio anti Phospho-ERK 1/2 d2 is mixed with anti Phospho-ERK 1/2 Cryptate (1:1) are added to each well, mixed by rotation and incubated overnight in the dark at room temperature. Plates are read on the Pherastar plate reader at 665 nm and 620 nm wavelengths. IC50 determination is performed by fitting the curve of inhibitor percent inhibition versus the log of the inhibitor concentration using the GraphPad Prism 7 software.

Chain of KRAS G12C (P01116 1-188 isoform P01116-2 G12C): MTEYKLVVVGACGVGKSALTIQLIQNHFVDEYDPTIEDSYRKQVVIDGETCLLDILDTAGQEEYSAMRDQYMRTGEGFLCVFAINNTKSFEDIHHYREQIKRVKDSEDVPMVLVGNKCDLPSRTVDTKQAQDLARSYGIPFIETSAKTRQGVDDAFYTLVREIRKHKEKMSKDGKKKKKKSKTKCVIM

Row | Structure (SMILES) | IC50 (KRAS G12C) | IC50 [1]
1 | C=CC(=O)N1CC(F)(Cn2c(=O)c(=O)n(-c3c(C)ccnc3C(C)C)c3nc(-c4c(F)ccc(C)c4O)c(Cl)cc32)C1 [Example 21, 1-((1-acryloyl-3-fluoroazetidin-3-yl)methyl)-7-chloro-6-(6-fluoro-2-hydroxy-3-methylphenyl)-4-(2-isopropyl-4-methylpyridin-3-yl)-1,4-dihydropyrido[2,3-b]pyrazine-2,3-dione] | ≤ 100 nM | ≤ 100 nM
2 | C=CC(=O)N1CC(F)(Cn2c(=O)c(=O)n(-c3c(C(C)C)cccc3C(C)C)c3nc(-c4c(O)ccc(F)c4F)c(Cl)cc32)C1 [Example 16, 1-((1-acryloyl-3-fluoroazetidin-3-yl)methyl)-7-chloro-6-(2,3-difluoro-6-hydroxyphenyl)-4-(2,6-diisopropylphenyl)-1,4-dihydropyrido[2,3-b]pyrazine-2,3-dione] | ≤ 100 nM | ≤ 100 nM
3 | C=CC(=O)N1CC(Cn2c(=O)c(=O)n(-c3c(C)ccnc3C(C)C)c3nc(-c4c(O)ccc(F)c4F)c(Cl)cc32)(OC)C1 [Example 39, 1-((1-acryloyl-3-methoxyazetidin-3-yl)methyl)-7-chloro-6-(2,3-difluoro-6-hydroxyphenyl)-4-(2-isopropyl-4-methylpyridin-3-yl)-1,4-dihydropyrido[2,3-b]pyrazine-2,3-dione] | 100 to 1000 nM | 100 to 1000 nM
4 | C=CC(=O)N1CC(F)(Cn2c(=O)c(=O)n(-c3c(C(C)C)cccc3C(C)C)c3nc(-c4cccc5ccccc45)c(Cl)cc32)C1 [Example 11, 1-((1-acryloyl-3-fluoroazetidin-3-yl)methyl)-7-chloro-6-(1-naphthyl)-4-(2,6-diisopropylphenyl)-1,4-dihydropyrido[2,3-b]pyrazine-2,3-dione] | ≤ 100 nM | 100 to 1000 nM
5 | C=CC(=O)N1CC(Cn2c(=O)c(=O)n(-c3c(C(C)C)cccc3C(C)C)c3nc(-c4cccc(F)c4F)c(Cl)cc32)(OC)C1 [Example 9, 1-((1-acryloyl-3-methoxy-azetidin-3-yl)methyl)-7-chloro-4-(2,6-diisopropylphenyl)-6-(2,3-difluorophenyl)-1,4-dihydropyrido[2,3-b]pyrazine-2,3-dione] | 100 to 1000 nM | 100 to 1000 nM
6 | C=CC(=O)N1CC(F)(Cn2c(=O)c(=O)n(-c3c(C(C)C)cccc3C(C)C)c3nc(-c4cc(O)cc5ccccc45)c(Cl)cc32)C1 [Example 14, 1-((1-acryloyl-3-fluoroazetidin-3-yl)methyl)-7-chloro-4-(2,6-diisopropylphenyl)-6-(3-hydroxynaphthalen-1-yl)-1,4-dihydropyrido[2,3-b]pyrazine-2,3-dione] | ≤ 100 nM | ≤ 100 nM
7 | C=CC(=O)N1CC(F)(Cn2c(=O)c(=O)n(-c3c(C)ccnc3C(C)C)c3nc(-c4ccccc4C(F)(F)F)c(Cl)cc32)C1 [Example 37, 1-((1-acryloyl-3-fluoroazetidin-3-yl)methyl)-7-chloro-4-(2-isopropyl-4-methylpyridin-3-yl)-6-(2-(trifluoromethyl)phenyl)-1,4-dihydropyrido[2,3-b]pyrazine-2,3-dione] | ≤ 100 nM | 100 to 1000 nM
8 | C=CC(=O)N1CC(Cn2c(=O)c(=O)n(-c3c(C(C)C)cccc3C(C)C)c3nc(-c4cccc(F)c4F)c(Cl)cc32)C1 [Example 5, 1-((1-acryloylazetidin-3-yl)methyl)-7-chloro-4-(2,6-diisopropylphenyl)-6-(2,3-difluorophenyl)-1,4-dihydropyrido[2,3-b]pyrazine-2,3-dione] | ≤ 100 nM | 100 to 1000 nM
9 | C=CC(=O)N1CC(F)(Cn2c(=O)c(=O)n(-c3c(C)ccnc3C(C)C)c3nc(-c4c(F)ccc(Cl)c4O)c(Cl)cc32)C1 [Example 24, 1-((1-acryloyl-3-fluoroazetidin-3-yl)methyl)-7-chloro-6-(3-chloro-6-fluoro-2-hydroxyphenyl)-4-(2-isopropyl-4-methylpyridin-3-yl)-1,4-dihydropyrido[2,3-b]pyrazine-2,3-dione] | ≤ 100 nM | ≤ 100 nM
10 | C=CC(=O)N1CC(F)(Cn2c(=O)c(=O)n(-c3c(C)ccnc3C(C)C)c3nc(-c4ccccc4F)c(Cl)cc32)C1 [Example 18, 1-((1-acryloyl-3-fluoroazetidin-3-yl)methyl)-7-chloro-6-(2-fluorophenyl)-4-(2-isopropyl-4-methylpyridin-3-yl)-1,4-dihydropyrido[2,3-b]pyrazine-2,3-dione] | ≤ 100 nM | ≤ 100 nM
11 | C=CC(=O)N1CC(F)(Cn2c(=O)c(=O)n(-c3c(C)ccnc3C(C)C)c3nc(-c4ccc(C)cc4F)c(Cl)cc32)C1 [Example 33, 1-((1-acryloyl-3-fluoroazetidin-3-yl)methyl)-7-chloro-6-(2-fluoro-4-methylphenyl)-4-(2-isopropyl-4-methylpyridin-3-yl)-1,4-dihydropyrido[2,3-b]pyrazine-2,3-dione] | ≤ 100 nM | ≤ 100 nM
12 | C=CC(=O)N1CC(F)(Cn2c(=O)c(=O)n(-c3c(C)ccnc3C(C)C)c3nc(-c4c(O)cccc4F)c(Cl)cc32)C1 [Example 17, 1-((1-acryloyl-3-fluoroazetidin-3-yl)methyl)-7-chloro-6-(2-fluoro-6-hydroxyphenyl)-4-(2-isopropyl-4-methylpyridin-3-yl)-1,4-dihydropyrido[2,3-b]pyrazine-2,3-dione] | ≤ 100 nM | ≤ 100 nM
13 | C=CC(=O)N1CC(O)(Cn2c(=O)c(=O)n(-c3c(C(C)C)cccc3C(C)C)c3nc(-c4ccccc4F)c(Cl)cc32)C1 [Example 7, 1-((1-acryloyl-3-hydroxy-azetidin-3-yl)methyl)-7-chloro-4-(2,6-diisopropylphenyl)-6-(2-fluorophenyl)-1,4-dihydropyrido[2,3-b]pyrazine-2,3-dione] | ≤ 100 nM | 100 to 1000 nM
14 | C=CC(=O)N1CC(Cn2c(=O)c(=O)n(-c3c(C)ccnc3C(C)C)c3nc(-c4c(O)cccc4F)c(Cl)cc32)(OC)C1 [Example 38, 1-((1-acryloyl-3-methoxyazetidin-3-yl)methyl)-7-chloro-6-(2-fluoro-6-hydroxyphenyl)-4-(2-isopropyl-4-methylpyridin-3-yl)-1,4-dihydropyrido[2,3-b]pyrazine-2,3-dione] | 100 to 1000 nM | 100 to 1000 nM
15 | C=CC(=O)N1CC(F)(Cn2c(=O)c(=O)n(-c3c(C)ccnc3C(C)C)c3nc(-c4c(F)ccc(F)c4O)c(Cl)cc32)C1 [Example 22, 1-((1-acryloyl-3-fluoroazetidin-3-yl)methyl)-7-chloro-6-(3,6-difluoro-2-hydroxyphenyl)-4-(2-isopropyl-4-methylpyridin-3-yl)-1,4-dihydropyrido[2,3-b]pyrazine-2,3-dione] | ≤ 100 nM | ≤ 100 nM
16 | C=CC(=O)N1CC(F)(Cn2c(=O)c(=O)n(-c3c(C)ccnc3C(C)C)c3nc(-c4c(O)cc(C)cc4F)c(Cl)cc32)C1 [Example 20, 1-((1-acryloyl-3-fluoroazetidin-3-yl)methyl)-7-chloro-6-(2-fluoro-6-hydroxy-4-methylphenyl)-4-(2-isopropyl-4-methylpyridin-3-yl)-1,4-dihydropyrido[2,3-b]pyrazine-2,3-dione] | ≤ 100 nM | ≤ 100 nM
17 | C=CC(=O)N1CC(F)(Cn2c(=O)c(=O)n(-c3c(C)ccnc3C(C)C)c3nc(-c4c(O)cccc4C(F)(F)F)c(Cl)cc32)C1 [Example 25, 1-((1-acryloyl-3-fluoroazetidin-3-yl)methyl)-7-chloro-6-(2-hydroxy-6-(trifluoromethyl)phenyl)-4-(2-isopropyl-4-methylpyridin-3-yl)-1,4-dihydropyrido[2,3-b]pyrazine-2,3-dione] | ≤ 100 nM | ≤ 100 nM
